This note sets out measurements from patent US20240246940A1, “HETEROARYL DERIVATIVE COMPOUND AND USE THEREOF” (VORONOI INC., priority 2021, published 2024).

Experiment [1] deals with SK-BR-3 cells (HER2 overexpressing cell line). The experiment in a line: SK-BR-3 cell proliferation inhibitory activity (CellTiter-Glo, 120 hours). The experiment is classed as cell-based. As to conditions: Homo sapiens. In a few lines: (§1)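 GI50 derived from % growth versus control from CellTiter-Glo luminescence, each test run three times. SK-BR-3 and BT-474 are seeded 48 h ahead at 5000/well and dosed at 0.2 nM–10 μM. N-87 (5000/well) gets […]–5 μM and HaCaT (3000/well) gets 0.8 nM–45 μM, both seeded 24 h ahead.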
(In ATP-based viability assays light output follows the ATP content of the culture.)

For experiment [2], the system named is N-87 cells (HER2 overexpressing cell line). The experiment in a line: N-87 cell proliferation inhibitory activity (CellTiter-Glo, 72 hours). The experiment is classed as cell-based. How it is done:
To evaluate the cell proliferation inhibitory activity of the compound according to the present invention on HER2 and EGFR kinases, the following method was performed using HER2 overexpressing cell lines (SK-BR-3, BT-474, and N-87) and EGFR expressing cell line (HaCaT).
McCOY'S 5A supplemented with 10% FBS was used for SK-BR-3 cells, RPMI-1640 medium supplemented with 20% FBS was used for BT-474 cancer cells, and RPMI-1640 medium supplemented with 10% FBS was used for N-87 cancer cells. DMEM supplemented with 10% FBS was used for HaCaT cells.
For SK-BR-3 cells, 5000 cells were aliquoted into each well of a white clear bottom 96 well plate (Corning) 48 hours before treatment with the compounds of Examples. For BT-474 cells, 5000 cells were aliquoted into each well of a white clear bottom 96 well plate (Corning) 48 hours before treatment with the compounds of Examples. For N-87 cells, 5000 cells were aliquoted into each well of a white clear bottom 96 well plate (Corning) 24 hours before treatment with the compounds of Examples. For HaCaT cells, 3000 cells were aliquoted into each well of a white clear bottom 96 well plate (Corning) 24 hours before treatment with the compounds of Examples. For SK-BR-3 cells and BT-474 cells, the compounds of Examples were diluted in dimethyl sulfoxide (three-fold dilution, a total of 11 concentrations) and injected each in an amount of 1 μl to a final concentration of 0.2 nM to 10 μM. For N-87 cells, the compounds of Examples were diluted in dimethyl sulfoxide (five-fold dilution, a total of 11 concentrations) and injected each in an amount of 0.5 μl to a final concentration of […] to 5 μM. For HaCaT cells, the compounds of Examples were diluted in dimethyl sulfoxide (three-fold dilution, a total of 11 concentrations) and injected each in an amount of 0.5 μl to a final concentration of 0.8 nM to 45 μM. For the measurement of living cells, the cells were stored at room temperature for 10 minutes using CellTiter-Glo cell viability reagent (Promega) after a certain period of time (SK-BR-3: 120 hours, BT-474: 120 hours, N-87: 72 hours, and HaCaT: 72 hours) post treatment with the compounds of Examples, and the luminescence intensity thereof was measured using a reader (SynergyNeo, Biotek). Each test was repeated three times.
The result values were calculated as a cell growth rate (%) compared to those of the control group. A graph was created using the GraphPad Prism version 5.0 program, and GI50 values were calculated.

In experiment [3] the test system is BT-474 cells (HER2 overexpressing cell line). The experiment in a line: BT-474 cell proliferation inhibitory activity (CellTiter-Glo, 120 hours). The experiment is classed as cell-based. As to conditions: Homo sapiens. The method, boiled down: as §1
The test system of experiment [4] is HaCaT cells (EGFR expressing cell line). Description: HaCaT cell proliferation inhibitory activity (CellTiter-Glo, 72 hours). The experiment is classed as cell-based. As to conditions: Homo sapiens. In a few lines:
as §1

The target in experiment [5] is T1, HER2 (Homo sapiens, UniProt P04626).
T1 construct: purchased Reaction Biology Corp
Description: Biochemical kinase assay for HER2 (Reaction Biology Corp), ATP 10 μM, 10-dose IC50. How it is done:
Biochemical kinase assays for HER2 and EGFR were performed by Reaction Biology Corp (San Diego, USA).

Some results are limits rather than exact numbers.

T1 sequence (P04626 23-1255): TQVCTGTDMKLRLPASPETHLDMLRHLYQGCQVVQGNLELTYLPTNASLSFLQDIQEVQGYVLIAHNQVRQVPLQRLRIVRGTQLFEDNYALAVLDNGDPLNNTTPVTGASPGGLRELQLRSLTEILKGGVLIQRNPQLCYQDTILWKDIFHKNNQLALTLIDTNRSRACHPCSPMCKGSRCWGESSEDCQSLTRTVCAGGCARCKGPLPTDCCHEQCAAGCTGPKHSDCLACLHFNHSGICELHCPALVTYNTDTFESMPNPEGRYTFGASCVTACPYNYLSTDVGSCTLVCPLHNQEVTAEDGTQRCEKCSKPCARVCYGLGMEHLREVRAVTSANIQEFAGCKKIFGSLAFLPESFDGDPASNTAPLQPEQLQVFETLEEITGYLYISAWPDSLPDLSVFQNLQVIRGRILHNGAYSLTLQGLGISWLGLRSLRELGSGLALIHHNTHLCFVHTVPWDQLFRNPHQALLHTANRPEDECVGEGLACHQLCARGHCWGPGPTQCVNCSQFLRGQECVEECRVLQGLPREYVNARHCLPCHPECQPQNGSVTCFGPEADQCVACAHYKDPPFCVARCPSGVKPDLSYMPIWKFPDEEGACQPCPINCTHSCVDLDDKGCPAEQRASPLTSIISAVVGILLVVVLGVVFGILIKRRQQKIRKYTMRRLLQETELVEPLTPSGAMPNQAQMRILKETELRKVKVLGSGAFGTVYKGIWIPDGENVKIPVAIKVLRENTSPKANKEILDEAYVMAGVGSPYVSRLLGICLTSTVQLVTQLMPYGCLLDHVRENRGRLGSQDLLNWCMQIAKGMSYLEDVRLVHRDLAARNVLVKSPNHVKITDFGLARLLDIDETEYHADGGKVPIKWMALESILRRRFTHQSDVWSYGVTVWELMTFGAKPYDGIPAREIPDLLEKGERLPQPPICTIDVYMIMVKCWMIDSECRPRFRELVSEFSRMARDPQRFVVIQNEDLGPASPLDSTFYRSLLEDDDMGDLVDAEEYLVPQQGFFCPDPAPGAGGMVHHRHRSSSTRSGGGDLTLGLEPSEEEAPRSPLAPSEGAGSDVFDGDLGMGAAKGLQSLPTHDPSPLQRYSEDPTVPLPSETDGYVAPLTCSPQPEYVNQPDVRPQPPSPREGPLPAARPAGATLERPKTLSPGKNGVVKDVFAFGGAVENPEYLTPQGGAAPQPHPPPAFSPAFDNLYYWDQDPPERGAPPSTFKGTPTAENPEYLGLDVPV

As a reminder, the GI50 is the concentration that inhibits growth by half. Regarding `C=CC(=O)N1CCC(Nc2cc3c(Nc4cc(-c5ccc(F)cc5F)ccc4OC)ncnc3cc2OC2CCOC2)CC1` (stereo not shown) [Example 286, 1-(4-((4-((2′,4′-difluoro-4-methoxy-[1,1′-biphenyl]-3-yl)amino)-7-((tetrahydrofuran-3-yl)oxy)quinazolin-6-yl)amino)piperidin-1-yl)prop-2-en-1-one], the 50% growth inhibitory concentration (GI50) in experiment [1], in experiment [2], in experiment [3] and in experiment [4] was no more than 150 nM throughout.
Take `C=CC(=O)N1CC[C@H](Oc2cc3c(Nc4cc(-c5ccc(F)cc5F)ccc4OC)ncnc3cc2OC)[C@H](F)C1` (relative stereo) [Example 182, 1-(cis-4-((4-((2′,4′-difluoro-4-methoxy-[1,1′-biphenyl]-3-yl)amino)-7-methoxy-quinazolin-6-yl)oxy)-3-fluoropiperidin-1-yl)prop-2-en-1-one]: the 50% growth inhibitory concentration (GI50) in experiment [1], in experiment [2], in experiment [3] and in experiment [4] was no more than 150 nM throughout.
Take `C=CC(=O)N1CCC(Oc2cc3c(Nc4cc(-c5ccc(F)c(C(F)(F)F)c5)ccc4OC)ncnc3cc2OC)CC1` [Example 142, 1-(4-((4-((4′-fluoro-4-methoxy-3′-(trifluoromethyl)-[1,1′-biphenyl]-3-yl)amino)-7-methoxy-quinazolin-6-yl)oxy)piperidin-1-yl)prop-2-en-1-one]: the GI50 in experiment [1] was no more than 150 nM; in experiment [2], no more than 150 nM; in experiment [3], no more than 150 nM; in experiment [4], 150 to 1000 nM.
By IC50 is commonly meant the concentration that gives 50% inhibition. As to `C=CC(=O)N1CCC(Oc2cc3c(Nc4cc(-c5cc(C)co5)ccc4OC)ncnc3cc2OC)CC1` [Example 90, 1-(4-((7-methoxy-4-((2-methoxy-5-(4-methylfuran-2-yl)phenyl)amino)quinazolin-6-yl)oxy)piperidin-1-yl)prop-2-en-1-one], in experiment [5], the half-inhibitory concentration (IC50) was no more than 50 nM.
For `C=CC(=O)N1CCC(Oc2cc3c(Nc4cc(-c5cccc(N(C)C)c5)ccc4OC)ncnc3cc2OC)CC1` [Example 151, 1-(4-((4-((3′-(dimethylamino)-4-methoxy-[1,1′-biphenyl]-3-yl)amino)-7-methoxy-quinazolin-6-yl)oxy)piperidin-1-yl)prop-2-en-1-one], the GI50 is no more than 150 nM in experiment [1], no more than 150 nM in experiment [2], no more than 150 nM in experiment [3] and 150 to 1000 nM in experiment [4].
`C=CC(=O)N1CC(Oc2cc3c(Nc4cc(-c5cccc(C#N)c5F)ccc4OC)ncnc3cc2OC)C1` [Example 21, 3'-((6-((1-acryloylazetidin-3-yl)oxy)-7-methoxy-quinazolin-4-yl)amino)-2-fluoro-4′-methoxy-[1,1′-biphenyl]-3-carbonitrile]: the GI50 in experiment [1], in experiment [2], in experiment [3] and in experiment [4] was no more than 150 nM each time.
As for `C=CC(=O)N1CCC(Nc2cc3c(Nc4cc(-c5ccco5)ccc4OC)ncnc3cc2OCCCN2CCOCC2)CC1` [Example 278, 1-(4-((4-((5-(furan-2-yl)-2-methoxyphenyl)amino)-7-(3-morpholinopropoxy)quinazolin-6-yl)amino)piperidin-1-yl)prop-2-en-1-one], the concentration for 50% growth inhibition (GI50) in experiment [1], in experiment [2], in experiment [3] and in experiment [4] was no more than 150 nM in each case.
Take `C=CC(=O)N1CCC(Oc2cc3c(Nc4cc(-c5cccc(C(F)(F)F)c5)ccc4OC)ncnc3cc2OC)CC1` [Example 139, 1-(4-((7-methoxy-4-((4-methoxy-3′-(trifluoromethyl)-[1,1′-biphenyl]-3-yl)amino)quinazolin-6-yl)oxy)piperidin-1-yl)prop-2-en-1-one]: the concentration for 50% growth inhibition (GI50) in experiment [1] was no more than 150 nM; in experiment [2], no more than 150 nM; in experiment [3] it was no more than 150 nM; in experiment [4], 150 to 1000 nM.
On to `C=CC(=O)N1CCC(F)(F)C(Oc2cc3c(Nc4cc(-c5ccco5)ccc4OC)ncnc3cc2OC)C1` (stereo not shown) [Example 113, 1-(4,4-difluoro-3-((4-((5-(furan-2-yl)-2-methoxyphenyl)amino)-7-methoxy-quinazolin-6-yl)oxy)piperidin-1-yl)prop-2-en-1-one], for which the concentration for 50% growth inhibition (GI50) in experiment [1], in experiment [2], in experiment [3] and in experiment [4] was no more than 150 nM each time.
Consider `C=CC(=O)N1CC(Oc2cc3c(Nc4cc(-c5ccc(F)nc5)ccc4OC)ncnc3cc2OC)C1` [Example 22, 1-(3-( (4-((5-(6-fluoropyridin-3-yl)-2-methoxyphenyl)amino)-7-methoxy-quinazolin-6-yl)oxy)azetidin-1-yl)prop-2-en-1-one], for which the GI50 in experiment [1], in experiment [2], in experiment [3] and in experiment [4] was no more than 150 nM each time.
On to `C=CC(=O)N1CC(Oc2cc3c(Nc4cc(-c5cccc(C(F)(F)F)c5F)ccc4OC)ncnc3cc2OC)C1` [Example 17, 1-(3-((4-((2′-fluoro-4-methoxy-3′-(trifluoromethyl)-[1,1′-biphenyl]-3-yl)amino)-7-methoxy-quinazolin-6-yl)oxy)azetidin-1-yl)prop-2-en-1-one], for which the 50% growth inhibitory concentration (GI50) in experiment [1] was no more than 150 nM; in experiment [2], no more than 150 nM; in experiment [3], no more than 150 nM; in experiment [4], 150 to 1000 nM.
Turning to `C=CC(=O)N1CCC(Oc2cc3c(Nc4cc(-c5ccc(F)cc5)ccc4OC)ncnc3cc2OC)CC1` [Example 67, 1-(4-((4-((4′-fluoro-4-methoxy-[1,1′-biphenyl]-3-yl)amino)-7-methoxy-quinazolin-6-yl)oxy)piperidin-1-yl)prop-2-en-1-one], the concentration for 50% growth inhibition (GI50) was no more than 150 nM in experiment [1], no more than 150 nM in experiment [2], no more than 150 nM in experiment [3] and 150 to 1000 nM in experiment [4].
`C=CC(=O)N1CCC(Oc2cc3c(Nc4cc(-c5cccc(C(F)(F)F)c5F)ccc4OC)ncnc3cc2OC)CC1` [Example 138, 1-(4-((4-((2′-fluoro-4-methoxy-3′-(trifluoromethyl)-[1,1′-biphenyl]-3-yl)amino)-7-methoxy-quinazolin-6-yl)oxy)piperidin-1-yl)prop-2-en-1-one]: the GI50 is no more than 150 nM in experiment [1], no more than 150 nM in experiment [2], no more than 150 nM in experiment [3] and 150 to 1000 nM in experiment [4].
As for `C=CC(=O)N1CCC(Oc2cc3c(Nc4cc(-c5cc(N)c(F)cc5C)ccc4OC)ncnc3cc2OC)CC1` [Example 161, 1-(4-((4-((5′-amino-4′-fluoro-4-methoxy-2′-methyl-[1,1′-biphenyl]-3-yl)amino)-7-methoxy-quinazolin-6-yl)oxy)piperidin-1-yl)prop-2-en-1-one], the concentration for 50% growth inhibition (GI50) in experiment [1], in experiment [2], in experiment [3] and in experiment [4] was no more than 150 nM each time.
Take `C=CC(=O)N1CC(Oc2cc3c(Nc4cc(-c5ccccc5F)ccc4OC)ncnc3cc2OC)C1` [Example 24, 1-(3-((4-((2′-fluoro-4-methoxy-[1,1′-biphenyl]-3-yl)amino)-7-methoxy-quinazolin-6-yl)oxy)azetidin-1-yl)prop-2-en-1-one]: the 50% growth inhibitory concentration (GI50) in experiment [1], in experiment [2], in experiment [3] and in experiment [4] was no more than 150 nM throughout.
Consider `C=CC(=O)N1CC[C@@H](Oc2cc3c(Nc4cc(-c5ccc(F)cc5F)ccc4OC)ncnc3cc2OC)[C@H](F)C1` (relative stereo) [Example 171, 1-(trans-4-((4-((2′,4′-difluoro-4-methoxy-[1,1′-biphenyl]-3-yl)amino)-7-methoxy-quinazolin-6-yl)oxy)-3-fluoropiperidin-1-yl)prop-2-en-1-one], for which the GI50 in experiment [1], in experiment [2], in experiment [3] and in experiment [4] was no more than 150 nM each time.
